Reference: patent US20230050846A1, “TREATMENT OF HEPATIC AND CARDIOVASCULAR DISORDERS” (LIFESEARCH, priority 2019, published 2023)
Peptide text beside a SMILES is read from it. * marks the point of attachment. Palmitoyl = CCCCCCCCCCCCCCCC(=O)*

System: wild-type C57B/L6J mice
Assay: Biliary lipid secretions, gallbladder cannulation, wild-type mice
Type: in vivo, mouse
Conditions: for bile flux / biliary secretion of bile acids / biliary secretion of cholesterol: C57BL/6 mice, vs PBS or SCR
Protocol: Wild-type C57B/L6J male mice were purchased from Janvier Labs (Le Genest Saint Isle, France). LDLR knock-out mice (males, C57B/L6J background) were obtained from The Jackson Laboratory (Bar Harbor, Me., USA). Mice were caged in animal rooms under specific pathogen free conditions at the animal facility of Rangueil (Anexplo platform, US006, Toulouse, France) with a light/dark schedule of 12 h/12 h and were fed ad libitum with a normal chow diet (#V1535 R/M-H, Ssniff, Germany). All animal experimental procedures were conducted in accordance with institutional guidelines on animal experimentation approved by the local ethical committee of animal care and are conformed to the guidelines from Directive 2010/63/EU of the European Parliament on the protection of animals used for scientific purposes or the NIH guideline.
Depending of experiments, 8 weeks old mice were intraperitoneally injected with PBS, the peptide of formula (I), the peptide of formula (II) and SCR. Details of peptide use, dose and mode of administration and time course are specified in the description of FIG. 11. Given the short elimination half-life of the peptide of formula (I), osmotic pumps were also used to insure a continuous delivery for 14 days. Briefly, 200 μL osmotic pump were filled with 10 mg/mL of the peptide of formula (I) in PBS and were implanted subcutaneously into the mice according to the manufacturer's instructions (Alzet®, model pump #2002), to insure the peptide of formula (I) release at an estimated rate of 0.5 μL/h, which corresponds to an estimated amount of delivery of 5 mg of the peptide of formula (I) per kilogram of body weight per day (5 mg/kg BW/day). Following treatments, mice were fasted for 2 h and were then anesthetized by intra-peritoneal injection of ketamine and xylazine hydrochloride. The common bile duct was ligated close to the duodenum and the gallbladder was punctured and cannulated with a polyethylene-10 catheter. After 30 min of stabilization, newly secreted bile was collected for 30 min. During bile collection, body temperature was stabilized using a temperature mattress. Bile flow (expressed in μL/min/100 g of body weight) was determined gravimetrically assuming a density of 1 g/mL for bile. At the end of experiment, blood was collected and mice were sacrificed by cervical dislocation.
For bile acid analysis, 1 μL of bile samples was diluted with 99 μL of milliQ water then incubated with the work reagent (6 mg NAD, 0.5 M hydrazine hydrate buffer, 0.05 M Na-pyrophosphate) for 4 min. The mix was then incubated with a start reagent (0.03 M Tris-EDTA; 0.3 U/mL 3-alpha-OH steroid dehydrogenase) and measured for 30 min, under excitation of 340/330 nm and emission of 440/420 nm. For phospholipid analysis, 1 μL of bile samples was diluted with 49 μL of milliQ water then incubated with the work reagent (100 mM MOPS, pH 8; 0.55 mM HVA; 20 mM CaCl; 11 U/mL Phospholipase-D; 1.66 U/mL Peroxidase; 0.1% Triton X-100) for 4 min. The mix was then incubated with a start reagent (1 M MOPS, pH 8, 50 U/mL Choline oxidase) and measured for 67.5 min, under excitation of 340/330 and emission of 440/40. For cholesterol analysis, 1 μL of bile samples was diluted with 29 μL of milliQ water then was incubated with the work reagent (100 mM MOPS, pH 8, 0.25 mM HVA; 0.1% Triton X-100) for 4 min. The mix was then incubated with a start reagent (0.1 M MOPS, pH 8, 0.06 U/mL cholesterol oxidase, 0.15 U/mL cholesterol esterase, 0.45 U/mL Peroxidase, 0.06 mM Taurocholate) and measured for 45 min, under excitation of 340/330 nm and emission of 440/420 nm. Secretion values of bile acids, phospholipids and cholesterol were calculated by multiplying concentration and bile flow values, and expressed as nmol/min/100 g body weight (BW).

[1] = continuous delivery (osmotic pump, sc) 14 days, 5 mg/kg BW/day

Row | Compound | bile flux (intraperitoneal bolus 25 mg/kg) | biliary secretion of bile acids (intraperitoneal bolus 25 mg/kg) | biliary secretion of cholesterol (intraperitoneal bolus 25 mg/kg) | biliary flux and biliary lipid secretion, compared with the 25 mg/kg dose (bolus injection 12 mg/kg) | biliary cholesterol secretion [1] | biliary flux [1] | time following injection up to which the effect on bile flux and biliary secretion is maintained (intraperitoneal bolus 25 mg/kg)
1 | CCCCCCCCCCCCCCCC(=O)NCCCC[C@H](NC(=O)[C@H](CCC(=O)O)NC(=O)[C@H](CCCNC(=N)N)NC(=O)[C@H](CO)NC(=O)[C@H](CCC(N)=O)NC(=O)[C@H](C)NC(=O)[C@H](CCCNC(=N)N)NC(=O)[C@H](Cc1ccccc1)NC(=O)[C@H](Cc1ccc(O)cc1)NC(=O)[C@H](CCCNC(=N)N)NC(=O)[C@H](CCC(=O)O)NC(=O)[C@H](CCC(=O)O)NC(=O)[C@H](CCC(=O)O)NC(=O)[C@H](C)NC(=O)[C@H](CCC(N)=O)NC(=O)[C@H](CCC(=O)O)NC(=O)[C@H](CCCNC(=N)N)NC(=O)[C@H](CCCCN)NC(=O)CNC(=O)[C@H](Cc1ccccc1)NC(=O)[C@H](C)NC(=O)CNC(=O)CNC(=O)[C@H](C)NC(=O)[C@H](CCC(=O)O)NC(=O)[C@H](CCCNC(=N)N)NC(=O)[C@@H](NC(=O)[C@H](CO)NC(=O)CNC(=O)[C@H](C)NC(=O)CNC(=O)[C@H](CCCNC(=N)N)NC(C)=O)[C@@H](C)CC)C(N)=O [peptide of formula (II), CH3CO-[SEQ ID NO: 1]-K-[palmitoyl]-NH2] (Ac-RGAGSIREAGGAFGKREQAEEERYFRAQSREK(Palmitoyl)-NH2) | stimulated | stimulated | stimulated | – | – | – | –
2 | Ac-RGAGSIREAGGAFGKREQAEEERYFRAQSRE-NH2 [peptide of formula (I), CH3CO-[SEQ ID NO: 1]-NH2] | significant increase | significant increase | significant increase | less efficient | stimulated | stimulated | up to 4 h
